The values that follow come from publication PMC10970644, “Molecular Pharmacology of Gelsemium Alkaloids on Inhibitory Receptors” (International Journal of Molecular Sciences, 2024).

Entries after “also recorded” stand apart in the source; their conditions may differ.

One data set deals with T1, α1 GlyR (Rattus norvegicus, UniProt P07727).
T1 construct: expressed in transfected cells; host or cells: HEK293 (ATCC CRL-1573)
T1 sequence (P07727 29-457): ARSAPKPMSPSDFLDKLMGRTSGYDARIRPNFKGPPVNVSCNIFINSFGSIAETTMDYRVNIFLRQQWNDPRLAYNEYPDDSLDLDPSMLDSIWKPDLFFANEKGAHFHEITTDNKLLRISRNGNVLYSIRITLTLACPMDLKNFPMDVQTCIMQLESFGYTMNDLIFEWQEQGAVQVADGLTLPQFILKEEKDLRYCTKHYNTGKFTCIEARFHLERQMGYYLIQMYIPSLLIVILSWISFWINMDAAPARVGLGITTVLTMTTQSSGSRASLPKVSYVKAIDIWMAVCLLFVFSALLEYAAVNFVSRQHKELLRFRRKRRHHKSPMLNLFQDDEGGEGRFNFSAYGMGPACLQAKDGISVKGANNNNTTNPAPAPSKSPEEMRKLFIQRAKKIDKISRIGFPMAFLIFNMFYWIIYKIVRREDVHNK
As to the kind of experiment: cell-based. Type of data set: cell-based. On the procedure:
(§1) The cells were transfected with plasmids encoding the following proteins: (i). rat GlyR α (1, 2, 3) subunits alone or combined with rat β subunits (Uniprot Accession Numbers: Q546L7, P22771, P20236, P20781); and (ii). rat GABAAR α1 combined with rat β2 and γ2 subunits (Uniprot Accession Numbers: P62813, P63138, P18508). The EGFP expression was used as a marker of successful protein expression. The transfection was performed using Lipofectamine 2000 (Invitrogen, ThermoFisher, Carlsbad, CA, USA) using the fabricant protocol. The plasmids used to express GlyRs and GABAARs have been previously described. To track the successful expression of GlyR β subunits and the GABAA γ2 or β2 subunit, these proteins were subcloned in the pIRES2-EGFP vector. The transfection ratio to obtain β-containing GlyRs was 1:5 of α:β, while the expression of γ2-containing GABAA receptors was 1:2:5 of α:β:γ2 [14, 15]. Chimeric GlyRs were described in a previous report. Site directed mutagenesis was performed by Charm Gene Science Mutagenex LLC. (Cumming, GA, USA). All the constructs were checked by full-length sequencing (SNPSaurus, Eugene, OR, USA).
(§2) In brief, patch electrodes (3–4 MΩ) were pulled from borosilicate glasses in a PC-100 puller (Narishige, Tokyo, Japan); then, they were filled with an intracellular solution, which contained (in mM) 120 CsCl, 8 EGTA, 10 HEPES (pH 7.4), 4 MgCl2, 0.5 GTP, and 2 ATP. The extracellular solution contained (in mM) 140 NaCl, 5.4 KCl, 2.0 CaCl2, 1.0 MgCl2, 10 HEPES (pH 7.4), and 10 glucose. Whole-cell patch-clamp recordings were performed at −60 mV with an Axoclamp 200B (Molecular Devices, Sunnyvale, CA, USA) or with HEKA EPC-10 (HEKA Elektronik GmbH, Reutlingen, Germany) amplifiers. […] Brief (3–5 s) pulses of agonist together with alkaloids were applied to cells. Stock solutions of the alkaloids were prepared in high purity distilled water. Aliquots of these stock solutions were diluted in reservoirs containing extracellular solution. […] The concentration–response curve parameters for the alkaloid inhibition (IC50, nH, and the maximal current inhibition) were obtained from the fitted curve of normalized concentration–response data points to the equation Iagonist = Imax (agonist)nH/((agonist)nH + (EC50)nH). The IC50 curves are best-fit mean ± SE from pooled data. […] The inhibition constant (Ki) was calculated using the Cheng–Prusoff equation (Ki = IC50/((2 + ([Agonist]/EC50)^nH)^1/nH − 1). The concentration of agonist corresponds to the sub-saturating agonist concentration used to obtain the IC50 for each alkaloid on a given GlyR subtype.

A further data set concerns the target T2, α2 GlyR (Rattus norvegicus, UniProt P22771).
T2 construct: The cells were transfected with plasmids encoding the following proteins; expressed in transfected cells; host or cells: HEK293 (ATCC CRL-1573)
T2 sequence (P22771 28-452): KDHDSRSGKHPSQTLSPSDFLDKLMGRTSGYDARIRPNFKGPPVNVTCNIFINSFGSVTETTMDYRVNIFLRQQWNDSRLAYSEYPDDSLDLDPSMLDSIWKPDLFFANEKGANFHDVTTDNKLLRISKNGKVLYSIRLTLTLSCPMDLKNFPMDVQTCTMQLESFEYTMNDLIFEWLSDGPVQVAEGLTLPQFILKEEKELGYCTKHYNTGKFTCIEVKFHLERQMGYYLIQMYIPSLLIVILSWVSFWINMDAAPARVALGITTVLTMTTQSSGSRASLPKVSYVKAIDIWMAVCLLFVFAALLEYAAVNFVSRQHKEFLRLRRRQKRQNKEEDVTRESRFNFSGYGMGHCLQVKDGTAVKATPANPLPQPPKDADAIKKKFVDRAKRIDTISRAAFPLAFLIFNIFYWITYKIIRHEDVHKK
The experiment in a line: cell-based. Type of data set: cell-based. On the procedure: as §1, §2

A further data set deals with T3, α2β GlyR (Rattus norvegicus, UniProt P20781+P22771).
T3 construct: The cells were transfected with plasmids encoding the following proteins; expressed in transfected cells; host or cells: HEK293 (ATCC CRL-1573)
As to the kind of experiment: cell-based. Type of data set: cell-based. On the procedure:
as §1, §2

The next data set deals with T4, α3 GlyR (Rattus norvegicus, UniProt P24524).
T4 construct: expressed in transfected cells; host or cells: HEK293 (ATCC CRL-1573)
T4 sequence (P24524 34-464): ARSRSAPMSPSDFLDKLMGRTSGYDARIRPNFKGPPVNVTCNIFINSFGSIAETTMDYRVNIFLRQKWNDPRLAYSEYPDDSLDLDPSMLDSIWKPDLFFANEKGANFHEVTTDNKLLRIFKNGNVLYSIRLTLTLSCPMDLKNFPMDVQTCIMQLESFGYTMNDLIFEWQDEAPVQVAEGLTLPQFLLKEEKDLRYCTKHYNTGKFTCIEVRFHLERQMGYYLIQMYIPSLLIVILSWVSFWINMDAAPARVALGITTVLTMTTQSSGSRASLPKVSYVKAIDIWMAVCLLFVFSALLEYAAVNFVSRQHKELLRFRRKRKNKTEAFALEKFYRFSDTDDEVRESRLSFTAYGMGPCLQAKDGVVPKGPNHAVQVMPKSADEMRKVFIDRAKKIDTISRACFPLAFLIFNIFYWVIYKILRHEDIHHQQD
As to the kind of experiment: cell-based. Type of data set: cell-based. On the procedure: as §1, §2

A further data set has as its target T5, α1β GlyR (Rattus norvegicus, UniProt P07727+P20781).
T5 construct: The cells were transfected with plasmids encoding the following proteins; expressed in transfected cells; host or cells: HEK293 (ATCC CRL-1573)
As to the kind of experiment: cell-based. On the procedure:
as §1, §2

The next data set concerns the target T6, α3β GlyR (Rattus norvegicus, UniProt P20781+P24524).
T6 construct: The cells were transfected with plasmids encoding the following proteins; expressed in transfected cells; host or cells: HEK293 (ATCC CRL-1573)
As to the kind of experiment: cell-based. Type of data set: cell-based. On the procedure:
as §1
as §2, with “The” for “The inhibition constant (Ki) was calculated using the Cheng–Prusoff equation (Ki = IC50/((2 + ([Agonist]/EC50)^nH)^1/nH − 1). The”

The target in a further data set is T7, α1β2γ2 GABAARs (Rattus norvegicus, UniProt P62813+P63138).
T7 construct: The cells were transfected with plasmids encoding the following proteins; expressed in transfected cells; host or cells: HEK293 (ATCC CRL-1573)
Type of data set: cell-based. The note with it: 50 μM alkaloid; 1 μM GABA. The method, then:
as §1
as §2, with “The” for “The inhibition constant (Ki) was calculated using the Cheng–Prusoff equation (Ki = IC50/((2 + ([Agonist]/EC50)^nH)^1/nH − 1). The”

The conditions of data set [1]: in vivo studies; cited from earlier work.
[2] abbreviates: percentage change of glycine-evoked current.

T6 sequence (P20781 23-496, one chain of several): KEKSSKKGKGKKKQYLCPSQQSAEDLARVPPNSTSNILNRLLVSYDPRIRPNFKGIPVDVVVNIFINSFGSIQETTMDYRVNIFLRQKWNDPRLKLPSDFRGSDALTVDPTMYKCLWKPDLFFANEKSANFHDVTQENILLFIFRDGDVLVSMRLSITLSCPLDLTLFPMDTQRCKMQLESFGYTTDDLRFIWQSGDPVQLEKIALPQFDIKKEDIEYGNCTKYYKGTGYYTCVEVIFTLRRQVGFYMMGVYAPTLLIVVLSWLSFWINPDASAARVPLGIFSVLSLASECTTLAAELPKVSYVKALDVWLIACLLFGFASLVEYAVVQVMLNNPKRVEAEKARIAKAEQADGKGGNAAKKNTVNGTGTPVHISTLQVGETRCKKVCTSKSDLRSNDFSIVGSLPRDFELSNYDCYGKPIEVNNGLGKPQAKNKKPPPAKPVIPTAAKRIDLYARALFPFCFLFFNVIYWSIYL
T3 sequence (P20781 23-496, one chain of several): as above
T5 sequence (P20781 23-496, one chain of several): as above
T7 sequence (P62813 28-455): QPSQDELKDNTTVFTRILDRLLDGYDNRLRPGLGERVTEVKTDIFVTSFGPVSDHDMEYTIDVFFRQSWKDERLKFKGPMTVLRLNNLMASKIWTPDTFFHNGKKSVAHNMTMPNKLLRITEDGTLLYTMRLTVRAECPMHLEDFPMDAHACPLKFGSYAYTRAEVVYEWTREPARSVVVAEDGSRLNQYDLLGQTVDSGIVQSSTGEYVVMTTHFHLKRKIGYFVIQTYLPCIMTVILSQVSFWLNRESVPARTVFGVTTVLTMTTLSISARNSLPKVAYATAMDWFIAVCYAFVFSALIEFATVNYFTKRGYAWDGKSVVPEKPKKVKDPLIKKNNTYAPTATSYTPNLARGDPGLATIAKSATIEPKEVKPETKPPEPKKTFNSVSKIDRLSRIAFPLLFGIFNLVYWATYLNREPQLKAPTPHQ
T7 sequence (P63138 26-474): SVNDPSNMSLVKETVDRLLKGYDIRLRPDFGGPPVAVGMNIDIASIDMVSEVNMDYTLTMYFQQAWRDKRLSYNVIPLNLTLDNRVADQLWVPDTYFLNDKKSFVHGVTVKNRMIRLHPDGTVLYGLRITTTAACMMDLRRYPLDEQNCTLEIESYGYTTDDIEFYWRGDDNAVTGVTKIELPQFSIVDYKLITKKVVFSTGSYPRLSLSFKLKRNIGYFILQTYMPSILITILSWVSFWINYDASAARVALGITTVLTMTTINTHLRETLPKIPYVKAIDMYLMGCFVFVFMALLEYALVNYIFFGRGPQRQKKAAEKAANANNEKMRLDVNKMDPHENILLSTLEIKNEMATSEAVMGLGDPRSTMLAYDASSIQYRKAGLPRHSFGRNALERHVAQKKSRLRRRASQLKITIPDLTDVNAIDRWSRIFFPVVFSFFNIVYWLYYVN
T7 sequence (P18508 39-466 partner): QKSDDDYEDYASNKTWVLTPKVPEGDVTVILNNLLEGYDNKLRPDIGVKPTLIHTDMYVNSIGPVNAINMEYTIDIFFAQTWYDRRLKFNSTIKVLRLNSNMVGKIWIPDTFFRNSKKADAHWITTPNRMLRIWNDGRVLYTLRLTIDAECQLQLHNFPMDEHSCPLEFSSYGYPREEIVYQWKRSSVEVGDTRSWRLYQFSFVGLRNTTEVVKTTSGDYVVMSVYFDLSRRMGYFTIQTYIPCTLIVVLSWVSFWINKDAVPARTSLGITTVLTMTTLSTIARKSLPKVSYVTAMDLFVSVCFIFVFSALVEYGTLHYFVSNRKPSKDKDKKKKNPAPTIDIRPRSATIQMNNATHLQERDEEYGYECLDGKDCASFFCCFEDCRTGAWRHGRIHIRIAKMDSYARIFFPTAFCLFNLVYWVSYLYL

With `CCC1=N[C@H]2C[C@@]3(C(=O)N(OC)c4ccccc43)[C@H]3C[C@@H]1[C@@H]2CO3` [humantenmine], the “Maximal Modulation Concentration” value at α1 GlyR was determined as 300 µM; on α2 GlyR it was 50 µM; at α2β GlyR, 50 µM; on α3 GlyR, 0.1 µM; on α1β GlyR, 0.01 µM; on α3β GlyR, 300 µM. Also, the “modulation of glycine-evoked current” value on α1 GlyR (300 μM of the alkaloid) was −19.2 ± 7.8%. For the same compound, at α1 GlyR (concentration range of 10 μM to 300 μM), the “modulation of α1GlyRs (in words)” value is “did not display any detectable activity; also recorded: did not significantly modulate”. Besides, the “Maximal Modulation” value on α1 GlyR (setting [2]) is −19.2 ± 7.8%; on α2 GlyR (setting [2]) it was 8.7 ± 9.6%; at α2β GlyR (setting [2]) it was −10.3 ± 11.2%; at α3 GlyR (setting [2]) it was −20.2 ± 10.7%; on α1β GlyR (setting [2]), −7.33 ± 10.8%; at α3β GlyR (setting [2]), −15.6 ± 3.8%. In addition, the “modulation of GABAARs (in words)” value at α1β2γ2 GABAARs is reported as “did not elicit any detectable alterations; also recorded: insensitive”. In addition, in data set [1], the LD50 entry is “lower than 0.2 mg/kg”.
